Measurements: US11274332B2, “Methods of administering 3,4-diaminopyridine” (SERB SA, priority 2011, dated 2022)

Assay: Food-effect crossover study, adverse events after single 20 mg amifampridine phosphate in healthy subjects (Examples 10, 11)
Assay type: in vivo
Experimental: This was a randomized, open-label, 2-treatment, 2-period crossover study with 44 completed subjects to assess the safety, tolerability, and the effect of food on the relative bioavailability of a single dose of amifampridine phosphate.
Safety was evaluated for all subjects who take at least one dose of 3,4-DAP. Safety was evaluated by recording the incidence of adverse events (AEs), physical examination, vital signs, concomitant medications, clinical laboratory assessments, and 12-lead electrocardiogram (ECG).
Analysis for the following safety parameters was carried out on the Safety Population: AEs which included all AEs, AEs by severity, drug-related AEs, deaths, SAEs, AEs leading to study discontinuation, and most frequent AEs, standard clinical laboratory tests, vital signs, ECG measurements, routine physical examinations, and prior and concomitant medications. The cut-off for frequency of AEs reported was determined based on the data. No formal statistical testing was performed for the safety analyses; only descriptive statistics were provided. Appropriate descriptive statistics for the safety data were determined using SAS Version 9.2.
AEs were coded according to the Medical Dictionary for Regulatory Activities (MedDRA; Version 13.0). […] The occurrence of AEs was assessed continuously from the time the subject signed the VID and consent. The reporting period for non-serious AEs was from the first dose to the final study visit. The investigator determined the severity of each event and the relationship of an AE to the IP and recorded it on the source documents and AE CRF. The nature, time of onset, duration, severity, and relationship to study drug was documented, including documentation of investigator assessment and review. All events were assessed to determine if the AE was serious.
The Investigator determined the severity of each event and the event was recorded on the source documents and AE CRF. A coding of “mild” meant there was no limitation of usual activities, “moderate” meant there was some limitation of usual activities, “severe” meant there was an inability to carry out usual activities.
The reporting period for AEs that met the criteria of an SAE began from the time of signing the VID and consent form through follow-up or early termination. […] Clinical Laboratory Assessments

Nc1ccncc1N [3,4-DAP, 3,4-diaminopyridine]
paraesthesias among the 93 drug-related AEs: % of events (Overall): 54%
paraesthesias among the 93 drug-related AEs: events (Overall): 50
Abdominal Pain, drug-related AE: events (Overall N=47): 3
Dizziness, drug-related AE: events (Overall N=47): 7
Dysgeusia, drug-related AE: events (Overall N=47): 3
Fatigue, drug-related AE: events (Overall N=47): 4
Gastrointestinal Disorders Total, drug-related AE: % of subjects (Overall N=47): 19%
Gastrointestinal Disorders Total, drug-related AE: events (Overall N=47): 12
Gastrointestinal Disorders Total, drug-related AE: subjects (Overall N=47): 9
Headache, drug-related AE: events (Overall N=47): 5
Hypoaesthesia Oral, drug-related AE: events (Overall N=47): 6
Nausea, drug-related AE: events (Overall N=47): 4
Nervous System Disorders Total, drug-related AE: % of subjects (Overall N=47): 57%
Nervous System Disorders Total, drug-related AE: events (Overall N=47): 74
Nervous System Disorders Total, drug-related AE: subjects (Overall N=47): 27
Paraesthesia Oral, drug-related AE: events (Overall N=47): 30
Paraesthesia, drug-related AE: events (Overall N=47): 20
